# What was measured:
# Assay type in all cases: in vivo
# [1] = tested on: Lolium perenne; experiment: Pre-emergence herbicidal assay, 96 cell trays, glasshouse; details: 168 h, Lollium, assessed 7 days after treatment, read-out: % control of plant growth; for pest or weed control at 200 g/ha: 0.2 kg/ha; for pest or weed control at 1000 g/ha: 1 kg/ha; for pest or weed control at 5000 g/ha: 5 kg/ha
# Experimental: (§1) The compounds were screened at three concentrations (0.2, 1 and 5 kg/ha) against 2 weed species (Stellaria media—Chickweed and Lolium perenne). The seeds were sown in the cells of 96 cell trays (4-6 seeds per cell). For the pre-emergence assay, 75 μL of a suspension of the test compound, at the above doses, was added on top of the soil 1 day after sowing. For the post-emergence assay, the seedlings were sprayed with 200 μL of a suspension of the test compound two weeks after sowing. The formulation used is 25% acetone and 75% water/0.01% Tween 20. Each treatment was replicated three times. The plants were kept in a glasshouse (uncontrolled conditions) and assessed 7 days after treatment. A small number of compounds were tested in a first trial. A larger number of compounds were tested in a second trial. The assessment was based on the % control of plant growth in each cell.
# [2] = tested on: Stellaria media—Chickweed; experiment: as above; details: 168 h, assessed 7 days after treatment, read-out: % control of plant growth; for pest or weed control at 200 g/ha: 0.2 kg/ha; for pest or weed control at 1000 g/ha: 1 kg/ha; for pest or weed control at 5000 g/ha: 5 kg/ha
# Experimental: as §1
# [3] = tested on: Lolium perenne; experiment: Post-emergence herbicidal assay, 96 cell trays, glasshouse; details: 168 h, Lollium, assessed 7 days after treatment, read-out: % control of plant growth; for pest or weed control at 200 g/ha: 0.2 kg/ha; for pest or weed control at 1000 g/ha: 1 kg/ha; for pest or weed control at 5000 g/ha: 5 kg/ha
# Experimental: as §1
# [4] = tested on: Stellaria media—Chickweed; experiment: as above; details: 168 h, assessed 7 days after treatment, read-out: % control of plant growth; for pest or weed control at 200 g/ha: 0.2 kg/ha; for pest or weed control at 1000 g/ha: 1 kg/ha; for pest or weed control at 5000 g/ha: 5 kg/ha
# Experimental: as §1
SMILES,pest or weed control at 200 g/ha ([1]; second trial (Table 2)) [%],pest or weed control at 1000 g/ha ([1]; second trial (Table 2)) [%],pest or weed control at 5000 g/ha ([1]; second trial (Table 2)) [%],pest or weed control at 200 g/ha ([2]; second trial (Table 2)) [%],pest or weed control at 1000 g/ha ([2]; second trial (Table 2)) [%],pest or weed control at 5000 g/ha ([2]; second trial (Table 2)) [%],pest or weed control at 200 g/ha ([3]; second trial (Table 2)) [%],pest or weed control at 1000 g/ha ([3]; second trial (Table 2)) [%],pest or weed control at 5000 g/ha ([3]; second trial (Table 2)) [%],pest or weed control at 200 g/ha ([4]; second trial (Table 2)) [%],pest or weed control at 1000 g/ha ([4]; second trial (Table 2)) [%],pest or weed control at 5000 g/ha ([4]; second trial (Table 2)) [%],also measured
COC(=O)C(C)N1C(=O)C2(CC2)Oc2cc(F)c(N3C(=O)C=C(C(F)(F)F)C3=O)cc21 (stereo not shown) [Example 17],< 20,20 to 80,20 to 80,20 to 80,20 to 80,80 to 100,< 20,< 20,< 20,< 20,20 to 80,20 to 80,–
CCCN1C(=O)C2(CC2)Oc2cc(F)c(N3C(=O)c4ccc(F)cc4C3=O)cc21 [Example 22],< 20,20 to 80,20 to 80,80 to 100,80 to 100,80 to 100,20 to 80,20 to 80,80 to 100,80 to 100,80 to 100,80 to 100,–
C#CCN1C(=O)C2(CC2)Oc2cc(F)c(N3C(=O)c4ccc(F)cc4C3=O)cc21 [Example 5],–,20 to 80,80 to 100,–,80 to 100,80 to 100,20 to 80,20 to 80,80 to 100,80 to 100,80 to 100,80 to 100,–
C#CCN1C(=O)C2(CC2)Oc2cc(F)c(N3C(=O)c4ccc(O)cc4C3=O)cc21 [Example 9],< 20,< 20,20 to 80,< 20,< 20,20 to 80,< 20,< 20,20 to 80,< 20,< 20,20 to 80,–
"C#CCN1C(=O)C2(CC2)Oc2cc(F)c(N3C(=O)C4=C(CCCC4)C3=O)cc21 [Example 1, 2-(7-Fluoro-3-oxo-4-(prop-2-yn-1-yl)-3,4-dihydrospiro[benzo[b][1,4]oxazine-2,1′-cyclopropan]-6-yl)-4,5,6,7-tetrahydro-1H-isoindole-1,3(2H)-dione]",20 to 80,20 to 80,80 to 100,20 to 80,80 to 100,80 to 100,20 to 80,80 to 100,80 to 100,80 to 100,80 to 100,80 to 100,pest or weed control at 200 g/ha ([1]; first trial (Table 1)): 20 to 80%; pest or weed control at 1000 g/ha ([1]; first trial (Table 1)): 20 to 80%; pest or weed control at 5000 g/ha ([1]; first trial (Table 1)): 20 to 80%; pest or weed control at 200 g/ha ([2]; first trial (Table 1)): < 20%; pest or weed control at 1000 g/ha ([2]; first trial (Table 1)): < 20%; pest or weed control at 5000 g/ha ([2]; first trial (Table 1)): < 20%; pest or weed control at 200 g/ha ([3]; first trial (Table 1)): < 20%; pest or weed control at 1000 g/ha ([3]; first trial (Table 1)): 20 to 80%; pest or weed control at 5000 g/ha ([3]; first trial (Table 1)): 80 to 100%; pest or weed control at 200 g/ha ([4]; first trial (Table 1)): < 20%; pest or weed control at 1000 g/ha ([4]; first trial (Table 1)): 20 to 80%; pest or weed control at 5000 g/ha ([4]; first trial (Table 1)): 20 to 80%
C#CCN1C(=O)C2(CN(C(=O)OCc3ccccc3)C2)Oc2cc(F)c(N3C(=O)c4ccc(F)cc4C3=O)cc21 [Example 25],< 20,< 20,< 20,20 to 80,20 to 80,20 to 80,< 20,< 20,< 20,< 20,< 20,< 20,–
CC(C(=O)O)N1C(=O)C2(CC2)Oc2cc(F)c(N3C(=O)c4ccc(F)cc4C3=O)cc21 (stereo not shown) [Example 35],< 20,20 to 80,20 to 80,< 20,20 to 80,20 to 80,< 20,20 to 80,20 to 80,80 to 100,80 to 100,80 to 100,–
C#CCN1C(=O)C2(CC2)Oc2cc(F)c(-n3c(=O)cc(C(F)(F)F)n(CC(=O)OC)c3=O)cc21 [Example 42],< 20,20 to 80,20 to 80,20 to 80,80 to 100,80 to 100,20 to 80,20 to 80,80 to 100,80 to 100,80 to 100,80 to 100,–
"O=C1c2ccc(F)cc2C(=O)N1c1cc2c(cc1F)OC1(CC1)C(=O)N2CC1CO1 (stereo not shown) [Example 36, 5-Fluoro-2-(7-fluoro-4-(oxiran-2-ylmethyl)-3-oxo-3,4-dihydrospiro[benzo[b][1,4]oxazine-2,1′-cyclopropan]-6-yl)isoindoline-1,3-dione]",< 20,20 to 80,20 to 80,< 20,20 to 80,80 to 100,< 20,20 to 80,20 to 80,80 to 100,80 to 100,80 to 100,–
C#CCN1C(=O)C2(CC2)Oc2cc(F)c(N3C(=O)c4cccc(F)c4C3=O)cc21 [Example 6],< 20,< 20,20 to 80,20 to 80,20 to 80,80 to 100,20 to 80,80 to 100,80 to 100,20 to 80,80 to 100,80 to 100,–
"C#CCN1C(=O)C2(CCC2)Oc2cc(F)c(-n3c(=O)cc(C(F)(F)F)[nH]c3=O)cc21 [Example 33, 3-(7-Fluoro-3-oxo-4-(prop-2-yn-1-yl)-3,4-dihydrospiro[benzo[b][1,4]oxazine-2,1′-cyclobutan]-6-yl)-6-(trifluoromethyl)pyrimidine-2,4(1H,3H)-dione]",< 20,< 20,< 20,< 20,20 to 80,20 to 80,< 20,< 20,< 20,< 20,< 20,20 to 80,–
COC(=O)C(C)N1C(=O)C2(CC2)Oc2cc(F)c(N3C(=O)c4ccc(F)cc4C3=O)cc21 (stereo not shown) [Example 16],< 20,20 to 80,20 to 80,80 to 100,80 to 100,80 to 100,20 to 80,20 to 80,80 to 100,80 to 100,80 to 100,80 to 100,–
"O=C1c2ccc(F)cc2C(=O)N1c1cc2c(cc1F)OC1(CC1)C(=O)N2CC#CI [Example 30, 5-Fluoro-2-(7-fluoro-4-(3-iodoprop-2-yn-1-yl)-3-oxo-3,4-dihydrospiro[benzo[b][1,4]oxazine-2,1′-cyclopropan]-6-yl)isoindoline-1,3-dione]",20 to 80,20 to 80,80 to 100,80 to 100,80 to 100,80 to 100,< 20,< 20,< 20,80 to 100,80 to 100,80 to 100,–
